# Laboratory results from PMC11813147, “Bioactivity assessment of peptides derived from salted jellyfish (Rhopilema hispidum) byproducts” (PLOS ONE, 2025).
# System: angiotensin I-converting enzyme (ACE)
# Test: ACE inhibitory activity assay (fluorometric ACE activity assay kit)
# Format: biochemical
# Conditions: peptide sample 1 mg/mL; for ACE inhibitory activity, mean±SD / inhibition: 37 °C, fluorescence ex 320/em 405 nm, n = 3, mean ± SD
# Protocol: The ACE inhibitory activity assay was performed following the method outlined by Batista et al., with slight modifications, using a fluorometric angiotensin I-converting enzyme (ACE) activity assay kit from Sigma-Aldrich (catalog number CS0002), Burlington, Massachusetts, USA. In summary, 10 µ L of the sample (1 mg/mL for the peptide sample and 50 µg/mL for ramipril) was combined with 40 µ L of the ACE solution (CS0002B) in 96-well flat-bottom black plates at 37 °C for 5 min. Next, 50 µ L of the substrate solution (CS0002C) was added to this mixture to initiate the reaction. A fluorescence multiwell plate reader was used to monitor the changes in fluorescence. The sample’s fluorescence was measured every min for 5 min, with excitation at 320 nm and emission at 405 nm. All reagents, except the test sample, were prepared to assess the ACE positive control activity. A kit standard solution (CS0002D) was diluted with assay buffer (CS0002A) to create different concentrations (nmol) of the standard solution, allowing generation of a standard curve. The slope of the standard curve (RFU/nmol) and the slope of the sample kinetic curve were utilized to calculate the ACE activity using the following equation (3):
# ACEactivitynmol/min=Slopesample/Slopestandard×DF (3)
# Where Slopesample refers to the slope of the blank-subtracted sample curve (RFU/min), Slopestandard refers to the slope of the blank-subtracted standard curve (RFU/nmol), DF is the dilution factor, and 0.1 nmol/min is equivalent to […].
# In this study, the results of ACE inhibitory activity are expressed as percentages. The ACE inhibitory activity (%) was calculated using the following equation (4):
# ACEinhibitoryactivity%=ACEPC–ACES/ACEPC×100 (4)
# Where ACEPC represents the ACE activity of the positive control, and ACES denotes the ACE activity of the sample.
Sequence,"ACE inhibitory activity, mean±SD (SD)",ACE inhibitory activity (replicate 1),ACE inhibitory activity (replicate 2),ACE inhibitory activity (replicate 3),inhibition (SD),"ACE inhibitory activity, mean±SD"
"DAENKENVEE [P18, synthesized peptide identified from jellyfish fraction PUR20C]",22.80±2.33^G %,20.13%,23.85%,24.42%,–,–
"EIDKLPPESRP [P7, synthesized peptide identified from jellyfish fraction PUR20C]",–,8.11%,8.96%,8.96%,8.68 ± 0.49%,–
"EQIYPMGEGDEL [P4, synthesized peptide identified from jellyfish fraction PUR20C]",5.15±0.92^J %,5.53%,4.10%,5.82%,–,–
"GKNCGETVWE [P9, synthesized peptide identified from jellyfish fraction PUR20C]",–,5.53%,8.68%,8.39%,7.53 ± 1.74%,–
"HSVLTASYRN [P5, synthesized peptide identified from jellyfish fraction PUR20C]",29.10±3.81^F %,24.71%,31.01%,31.58%,–,–
"KFNEVVYFL [P15, synthesized peptide identified from jellyfish fraction PUR20C]",55.43±3.55^C %,57.63%,51.33%,57.34%,–,–
"LGAEGRSP [P13, synthesized peptide identified from jellyfish fraction PUR20C]",20.51±1.81^G %,21.56%,18.41%,21.56%,–,–
"LNIPKPKLNLL [P11, synthesized peptide identified from jellyfish fraction PUR20C]",22.90±3.15^G %,19.27%,25.00%,24.42%,–,–
"MVVACVLPEA [P16, synthesized peptide identified from jellyfish fraction PUR20C]",–,92.27%,89.69%,93.12%,–,91.69%
"NQKAMQELNE [P1, synthesized peptide identified from jellyfish fraction PUR20C]",–,6.67%,6.67%,6.10%,6.48 ± 0.33%,–
"PFTMYFLL [P14, synthesized peptide identified from jellyfish fraction PUR20C]",81.87±0.33^B %,81.67%,81.67%,82.25%,–,–
"PMETDDQPNN [P17, synthesized peptide identified from jellyfish fraction PUR20C]",12.40±2.23^H %,9.82%,13.54%,13.83%,–,–
"RARVVPMY [P6, synthesized peptide identified from jellyfish fraction PUR20C]",33.68±0.59^E %,33.87%,33.01%,34.16%,–,–
"RPLAKIIP [P8, synthesized peptide identified from jellyfish fraction PUR20C]",29.96±3.35^F %,32.44%,26.14%,31.29%,–,–
"TDSPAPSETTD [P2, synthesized peptide identified from jellyfish fraction PUR20C]",0.85±0.33^K %,0.66%,1.24%,0.66%,–,–
